Laboratory results published in US8372831B2, “Isoxazoline linked pyrrolo[2,1-c][1,4]benzodiazepine hybrids as potential anticancer agents and the process for preparation thereof” (Council of Scientific & Industrial Research, priority 2008, dated 2013).

System: duplex-form calf thymus DNA (CT-DNA)
Assay: Thermal denaturation studies with calf thymus DNA
Assay type: binding
Conditions: [PBD]:[DNA] molar ratio 1:5, CT-DNA 100 μM, ligand 20 μM, pH 7.00
Procedure: Compounds have been subjected to thermal denaturation studies with duplex-form calf thymus DNA (CT-DNA) using a modification of a reported procedure. Working solutions in aqueous buffer (10 mM NaH2PO4/Na2HPO4, 1 mM Na2EDTA, pH 7.00+0.01) containing CT-DNA (100 (μm in phosphate) and the PBD (20(μm) have been prepared by addition of concentrated PBD solutions in DMSO to obtain a fixed [PBD]/[DNA] molar ratio of 1:5. The DNA-PBD solutions have been incubated at 37° C. for 0 and 18 hrs prior to analysis. Samples have been monitored at 260 nm using a Beckman DU-800 spectrophotometer fitted with high performance temperature controller, and heated at 1° C. min^−1 in the 40-110° C. range. DNA helix→coil transition temperatures (Tm) have been obtained from the maxima in the d(A260)/d T derivative plots. Drug-induced alterations in DNA melting behavior are given by: ΔTm=Tm(DNA+PBD)−Tm(DNA alone), where the Tm value for the PBD-free CT-DNA is 68.5±0.01.
The DNA-binding for these novel C8-linked isoxazoline-PBD hybrids has been examined by thermal denaturation studies using calf thymus CT-DNA. […] Data for 5a-c, 9b and 9g and DC-81 are included in Table 4 for comparison.

Structure (SMILES) | ΔTm after incubation at 37° C. for 0 hrs [°C] | ΔTm after incubation at 37° C. for 18 hrs [°C]
COc1cc(C2=NOC(c3cc(OC)c(OC)c(OC)c3)C2)ccc1OCCCOc1cc2c(cc1OC)C(=O)N1CCC[C@H]1C=N2 (stereo partly drawn) [Compound 5a, (11aS)-7-(methyloxy)-8-(3-[(2-(methyloxy)-4-5-[3,4,5-tri(methyloxy)phenyl]-4-,5-dihydro-3-isoxazolylphenyl)oxy]propyloxy)-2,3,5,11a-tetrahydro-1H benzo[e]pyrrolo[1,2-a][1,4]diazepi-5-one] | 3.9 | 6.0
COc1cc(C2=NOC(c3cc(OC)c(OC)c(OC)c3)C2)ccc1OCCCCCOc1cc2c(cc1OC)C(=O)N1CCC[C@H]1C=N2 (stereo partly drawn) [Compound 5c, (11aS)-7-(methyloxy)-8-(5-[(2-(methyloxy)-4-5-[3,4,5-tri(methyloxy)phenyl]-4,5-dihydro-3-isoxazolylphenyl)oxy]pentyloxy)-2,3,5,11a-tetrahydro-1H benzo[e]pyrrolo[1,2-a][1,4]diazepi-5-one] | 7.0 | 8
COc1cc2c(cc1OCCCCCOc1c(OC)cc(C3CC(c4ccc(OC)c(OC)c4OC)=NO3)cc1OC)N=C[C@@H]1CCCN1C2=O (stereo partly drawn) [Compound 9g, (11aS)-8-(5-[(2,6-di(methyloxy)-4-3-[2,3,4-tri(methyloxy)phenyl]-4,5-dihydro-5-isoxazolylphenyl)oxy]pentyloxy)-7-(methyloxy)-2,3,5,11a-tetrahydro-1H-benzo[e]pyrrolo[1,2-a][1,4]diazepin-5-one] | 1.4 | 2.1
COc1cc2c(cc1O)N=CC1CCCN1C2=O (centres unmarked) [DC-81, reference compound] | 0.3 | 0.7
